Drawing on US8969376B2, “Pyrazolopyrimidine compounds and their use as PDE10 inhibitors” (Mitsubishi Tanabe Pharma Corporation, priority 2010, dated 2015), this text covers IC50 for 13 molecules.

The target in assay [1] is Human PDE10A (hPDE10A) (Homo sapiens (Human), UniProt Q9Y233). Briefly: Measurement of PDE10 inhibitory activity (PDE assay, radiolabeled nucleotide method), human enzyme. Format: biochemical. The note with it: PDE10A of human (PDE10A2 expressed in COS-7 cells); substrate 3H-cAMP, final 7 nM; room temperature 90 min. From the text: (§1) (1) Bovine PDE10A (bPDE10A) was isolated and prepared from bovine corpus striatum, according to the methods described in the reference Fujishige et al., Eur. J. Biochem., vol. 266, pp. 1118-1127, 1999. Human PDE10A (hPDE10A) was isolated from COS-7 cells transfected with plasmids coding for human PDE10A2, according to the methods described in the reference Kotera et al., Biochem. Biophys. Res. Commun., vol. 261, pp. 551-557, 1999. The enzyme solutions obtained were used for a PDE assay.
(§2) The PDE assay was performed according to a modified method referred to a report of Kotera et al. (Kotera et al., Biochem. Pharmacol., vol. 60, pp. 1333-1341, 2000), by the radiolabeled nucleotide method.
(§3) Specifically, the measurements of the inhibitory activities were carried out in the following method.
(Method) The test compounds were dissolved in dimethyl sulfoxide (DMSO). 2 μL of the compound solution was added to 96 well plate, and the reaction mixture (20 μL of PDE enzyme solution in 50 mM Tris-HCl, pH 8.0, 40 μL of the assay buffer (50 mM Tris-HCl, pH 8.0, 2 mM MgCl2, 0.07% 2-mercaptoethanol, and 0.825 mg/mL bovine serum albumin), and 20 μL of 1 mg/mL snake venom in 50 mM Tris-HCl, pH8.0) was added to the 96 well plate. The enzyme reaction was started by adding and mixing with substrate solution of 20 μL containing approximate 35 nM ^3H-cAMP in 50 mM Tris-HCl, pH 8.0. The final concentration of cAMP in the reaction mixtures was 7 nM. The reaction mixtures were incubated at room temperature for 90 min. After incubation, the reaction was stopped by adding 100 μL of methanol and resultant solutions were applied to filter plate containing Dowex (1×8 200-400) and centrifuged. 50 μL of the eluate together with wash eluate with additional 100 μL methanol was collected in another plate and the radioactivity was measured.
(2) The compounds in the Examples below were tested for PDE inhibition using the Method described above.

For assay [2], the target named is Bovine PDE10A (bPDE10A) (Bos taurus, UniProt A0A3Q1MHJ4). Briefly: Measurement of PDE10 inhibitory activity (PDE assay, radiolabeled nucleotide method), bovine enzyme. It counts as biochemical. The settings on record: PDE10A of bovine (corpus striatum); substrate 3H-cAMP, final 7 nM; room temperature 90 min.
From the text: as §1, §2, §3
(Method) The test compounds were dissolved in dimethyl sulfoxide (DMSO). 2 μL of the compound solution was added to 96 well plate, and the reaction mixture (20 μL of PDE enzyme solution in 50 mM Tris-HCl, pH 8.0, 40 μL of the assay buffer (50 mM Tris-HCl, pH 8.0, 2 mM MgCl2, 0.07% 2-mercaptoethanol, and 0.825 mg/mL bovine serum albumin), and 20 μL of 1 mg/mL snake venom in 50 mM Tris-HCl, pH8.0) was added to the 96 well plate. […] 50 μL of the eluate together with wash eluate with additional 100 μL methanol was collected in another plate and the radioactivity was measured. […]

Chain of Human PDE10A (hPDE10A) (Q9Y233 267-1055): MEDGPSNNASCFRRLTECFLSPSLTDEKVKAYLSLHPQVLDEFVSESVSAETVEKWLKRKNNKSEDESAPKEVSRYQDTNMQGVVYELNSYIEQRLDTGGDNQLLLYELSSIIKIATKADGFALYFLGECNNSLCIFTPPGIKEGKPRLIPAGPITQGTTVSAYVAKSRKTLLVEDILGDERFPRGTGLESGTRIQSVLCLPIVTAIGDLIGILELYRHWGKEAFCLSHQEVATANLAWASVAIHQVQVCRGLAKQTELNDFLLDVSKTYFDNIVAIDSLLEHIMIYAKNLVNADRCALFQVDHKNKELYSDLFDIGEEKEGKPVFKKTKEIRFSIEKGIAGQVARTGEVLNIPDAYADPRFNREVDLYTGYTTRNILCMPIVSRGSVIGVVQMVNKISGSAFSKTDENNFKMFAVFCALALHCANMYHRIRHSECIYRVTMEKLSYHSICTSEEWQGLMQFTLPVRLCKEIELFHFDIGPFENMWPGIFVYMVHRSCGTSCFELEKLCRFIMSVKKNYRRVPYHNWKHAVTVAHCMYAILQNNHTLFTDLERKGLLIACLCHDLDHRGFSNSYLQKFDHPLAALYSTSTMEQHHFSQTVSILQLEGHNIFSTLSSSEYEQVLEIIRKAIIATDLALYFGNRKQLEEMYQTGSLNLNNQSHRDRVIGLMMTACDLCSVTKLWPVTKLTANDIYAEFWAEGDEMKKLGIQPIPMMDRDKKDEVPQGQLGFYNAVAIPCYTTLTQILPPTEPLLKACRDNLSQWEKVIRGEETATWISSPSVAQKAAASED
Chain of Bovine PDE10A (bPDE10A) (A0A3Q1MHJ4 1-1068): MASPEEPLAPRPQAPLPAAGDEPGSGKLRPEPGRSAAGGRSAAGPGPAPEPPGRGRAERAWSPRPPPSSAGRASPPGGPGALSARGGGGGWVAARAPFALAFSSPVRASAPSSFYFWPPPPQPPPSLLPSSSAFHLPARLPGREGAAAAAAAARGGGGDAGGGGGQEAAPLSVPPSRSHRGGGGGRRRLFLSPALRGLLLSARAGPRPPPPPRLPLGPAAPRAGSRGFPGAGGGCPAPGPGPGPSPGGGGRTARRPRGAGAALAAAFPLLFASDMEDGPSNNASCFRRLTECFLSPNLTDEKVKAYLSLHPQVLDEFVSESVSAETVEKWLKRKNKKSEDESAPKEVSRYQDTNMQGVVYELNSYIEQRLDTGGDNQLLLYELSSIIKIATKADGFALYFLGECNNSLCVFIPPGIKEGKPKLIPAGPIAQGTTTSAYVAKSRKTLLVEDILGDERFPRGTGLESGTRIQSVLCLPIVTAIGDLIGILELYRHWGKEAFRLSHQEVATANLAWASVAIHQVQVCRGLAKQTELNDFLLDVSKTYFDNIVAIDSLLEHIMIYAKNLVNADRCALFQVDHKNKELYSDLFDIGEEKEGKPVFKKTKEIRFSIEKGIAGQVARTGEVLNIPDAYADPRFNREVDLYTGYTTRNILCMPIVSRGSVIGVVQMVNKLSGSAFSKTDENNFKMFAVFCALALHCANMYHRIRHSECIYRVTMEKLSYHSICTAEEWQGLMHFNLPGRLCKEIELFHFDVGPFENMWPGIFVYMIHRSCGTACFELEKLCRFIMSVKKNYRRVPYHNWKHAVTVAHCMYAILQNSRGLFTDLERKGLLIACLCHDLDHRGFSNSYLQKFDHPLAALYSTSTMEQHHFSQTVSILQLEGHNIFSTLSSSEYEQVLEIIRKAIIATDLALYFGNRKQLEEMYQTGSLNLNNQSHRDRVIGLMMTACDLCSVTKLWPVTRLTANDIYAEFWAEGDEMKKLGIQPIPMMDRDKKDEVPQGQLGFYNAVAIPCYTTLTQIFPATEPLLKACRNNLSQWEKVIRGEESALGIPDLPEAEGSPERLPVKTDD

The IC50 is the concentration at which inhibition is half-maximal. `Cc1nc2cnccc2nc1-c1cc2nc(N3CCCC3)cc(NC3CCOCC3)n2n1` [Example 5.002, 2-(3-methylpyrido[3,4-b]pyrazin-2-yl)-5-pyrrolidin-1-yl-N-(tetrahydro-2H-pyran-4-yl)pyrazolo[1,5-a]pyrimidin-7-amine] registered an IC50 in assay [1] of 280 pM.
Still for that read-out and setting: next, `CCCc1cnc(C)c(-c2cc3nc(N4CCCC4)cc(N(C)C4CCOCC4)n3n2)n1` [Example 1.181, N-methyl-2-(3-methyl-6-propylpyrazin-2-yl)-5-pyrrolidin-1-yl-N-(tetrahydro-2H-pyran-4-yl)pyrazolo[1,5-a]pyrimidin-7-amine]: 640 pM.
Consider `Cc1nc(C)c(C2CC2)nc1-c1cc2nc(N3CCCC3)cc(NCC(C)(C)O)n2n1` [Example 1.189, 1-{[2-(6-cyclopropyl-3,5-dimethylpyrazin-2-yl)-5-pyrrolidin-1-ylpyrazolo[1,5-a]pyrimidin-7-yl]amino}-2-methylpropan-2-ol], for which, in assay [1], the 50% inhibitory concentration (IC50) is 180 pM.
For `COCCN(CCOC)c1cc(N2CCCC2)nc2cc(-c3nc4cc(C)ccc4nc3C)nn12` [Example 1.050, 2-(3,7-dimethylquinoxalin-2-yl)-N,N-bis(2-methoxyethyl)-5-pyrrolidin-1-ylpyrazolo[1,5-a]pyrimidin-7-amine], the half-maximal inhibitory concentration (IC50) in assay [2] is 19 pM.
The molecule `Cc1nc2ccc(F)cc2nc1-c1cc2nc(N3CC[C@H](F)C3)cc(N[C@H]3CC[C@@](C)(O)CC3)n2n1` [Example 1.175, cis-4-({2-(7-fluoro-3-methylquinoxalin-2-yl)-5-[(3R)-3-fluoropyrrolidin-1-yl]pyrazolo[1,5-a]pyrimidin-7-yl}amino)-1-methylcyclohexanol] showed a half-inhibitory concentration (IC50) in assay [1] of 120 pM.
The same measure, in the same setting: the figure for `CO[C@H]1CC[C@H](Nc2cc(N3CCCC3)nc3cc(-c4nc5c(nc4C)OCCC5)nn23)CC1` [Example 1.199, N-(trans-4-methoxycyclohexyl)-2-(3-methyl-7,8-dihydro-6H-pyrano[2,3-b]pyrazin-2-yl)-5-pyrrolidin-1-ylpyrazolo[1,5-a]pyrimidin-7-amine] is 890 pM; for `Cc1cn2nccc2nc1-c1cc2nc(N3CCCC3)cc(NCC(C)(C)O)n2n1` [Example 1.184, 2-methyl-1-[(6′-methyl-5-pyrrolidin-1-yl-2,5′-bipyrazolo[1,5-a]pyrimidin-7-yl)amino]propan-2-ol] it is 2500 pM; for `Cc1nc(C)c(-c2cc3nc(N4CCCC4)cc(NCC(C)(C)O)n3n2)nc1CC(C)C` [Example 1.187, 1-{[2-(6-isobutyl-3,5-dimethylpyrazin-2-yl)-5-pyrrolidin-1-ylpyrazolo[1,5-a]pyrimidin-7-yl]amino}-2-methylpropan-2-ol] it is 600 pM.
On to `Cc1nc2c(nc1-c1cc3nc(N4CCCC4)cc(N[C@H]4CC[C@](C)(O)CC4)n3n1)CCCO2` [Example 1.173, trans-1-methyl-4-{[2-(3-methyl-7,8-dihydro-6H-pyrano[2,3-b]pyrazin-2-yl)-5-pyrrolidin-1-ylpyrazolo[1,5-a]pyrimidin-7-yl]amino}cyclohexanol], for which the IC50 in assay [1] came to 270 pM.
The same measure, in the same setting: next, `Cc1nc2c(nc1-c1cc3nc(N4CCCC4)cc(NCC(C)(C)O)n3n1)CCCO2` [Example 1.198, 2-methyl-1-{[2-(3-methyl-7,8-dihydro-6H-pyrano[2,3-b]pyrazin-2-yl)-5-pyrrolidin-1-ylpyrazolo[1,5-a]pyrimidin-7-yl]amino}propan-2-ol]: 820 pM; `Cc1nc(C)c(C2CC2)nc1-c1cc2nc(N3CCCC3)cc(NC3CCOCC3)n2n1` [Example 1.190, 2-(6-cyclopropyl-3,5-dimethylpyrazin-2-yl)-5-pyrrolidin-1-yl-N-(tetrahydro-2H-pyran-4-yl)pyrazolo[1,5-a]pyrimidin-7-amine]: 690 pM; `Cc1nc2ccncc2nc1-c1cc2nc(N3CCCC3)cc(NC3CCOCC3)n2n1` [Example 5.001, 2-(2-methylpyrido[3,4-b]pyrazin-3-yl)-5-pyrrodin-1-yl-N-(tetrahydro-2H-pyran-4-yl)pyrazolo[1,5-a]pyrimidin-7-amine]: 150 pM.
The same measure, in the same setting: next, `Cc1nc2c(nc1-c1cc3nc(N4CCCC4)cc(NC4CCOCC4)n3n1)CCCO2` [Example 1.197, 2-(3-methyl-7,8-dihydro-6H-pyrano[2,3-b]pyrazin-2-yl)-5-pyrrolidin-1-yl-N-(tetrahydro-2H-pyran-4-yl)pyrazolo[1,5-a]pyrimidin-7-amine]: 2500 pM.
